Laboratory results as given in paper PMC5513037, “Examining the influence of specificity ligands and ATP-competitive ligands on the overall effectiveness of bivalent kinase inhibitors” (Proteome Science, 2017).

Columns and labels:
Assay in all cases: KAM-matrix competition in K562 lysate;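 as to 0.001 uM KAM: median log10 fold change of treatment over DMSO control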;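 as to 0.01 uM KAM: median log10 fold change of treatment over DMSO control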;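 as to 0.1 uM KAM: median log10 fold change of treatment over DMSO control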;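 as to 1 uM KAM: median log10 fold change of treatment over DMSO control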;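 as to 10 uM KAM: median log10 fold change of treatment over DMSO control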
Type in all cases: binding
[1] = biological target: T1, CDK5 (Homo sapiens, UniProt Q00535)
T1 construct: endogenous in cells; host or cells: K562
Experimental: (§1) Supplement 12953_2017_125_MOESM1_ESM.zip/MS_Supp Info.xlsx, sheet "KAM" | column: 10 uM KAM; 1 uM KAM; 0.1 uM KAM; 0.01 uM KAM; 0.001 uM KAM; RB50

[2] = biological target: T2, ZAK (Homo sapiens, UniProt Q9NYL2)
T2 construct: endogenous in cells; host or cells: K562 cell lysate
Experimental: as §1

[3] = biological target: T3, CAMK4 (Homo sapiens, UniProt Q16566);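 as to 0.001 uM KAM: median log10 fold change of treatment over DMSO control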;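 as to 0.01 uM KAM: median log10 fold change of treatment over DMSO control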;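 as to 0.1 uM KAM: median log10 fold change of treatment over DMSO control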;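 as to 1 uM KAM: median log10 fold change of treatment over DMSO control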;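 as to 10 uM KAM: median log10 fold change of treatment over DMSO control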
T3 construct: endogenous in cells; host or cells: K562
T3 sequence (Q16566 1-473): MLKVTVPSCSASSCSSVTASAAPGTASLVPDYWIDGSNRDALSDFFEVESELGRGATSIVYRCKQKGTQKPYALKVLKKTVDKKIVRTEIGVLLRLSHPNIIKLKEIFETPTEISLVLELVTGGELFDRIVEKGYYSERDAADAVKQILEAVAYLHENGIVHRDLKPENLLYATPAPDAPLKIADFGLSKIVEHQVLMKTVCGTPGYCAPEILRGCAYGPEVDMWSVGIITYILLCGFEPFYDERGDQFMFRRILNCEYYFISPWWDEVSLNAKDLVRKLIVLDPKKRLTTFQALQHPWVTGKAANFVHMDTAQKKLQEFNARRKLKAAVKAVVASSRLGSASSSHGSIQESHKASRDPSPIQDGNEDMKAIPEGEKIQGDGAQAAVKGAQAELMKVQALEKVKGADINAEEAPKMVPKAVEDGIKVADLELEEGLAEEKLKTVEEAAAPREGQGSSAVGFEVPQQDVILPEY
Experimental: as §1

[4] = biological target: T4, PRKCB (Homo sapiens, UniProt P05771)
T4 construct: endogenous in cells; host or cells: K562
Experimental: as §1

[5] = biological target: T5, BMP2K (Homo sapiens, UniProt Q9NSY1)
T5 construct: endogenous in cells; host or cells: K562
Experimental: as §1

[6] = biological target: T6, BMPR2 (Homo sapiens, UniProt Q13873);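 as to 0.001 uM KAM: median log10 fold change of treatment over DMSO control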;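 as to 0.01 uM KAM: median log10 fold change of treatment over DMSO control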;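 as to 0.1 uM KAM: median log10 fold change of treatment over DMSO control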;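 as to 1 uM KAM: median log10 fold change of treatment over DMSO control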;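 as to 10 uM KAM: median log10 fold change of treatment over DMSO control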
T6 construct: endogenous in cells; host or cells: K562
T6 sequence (Q13873 27-1038): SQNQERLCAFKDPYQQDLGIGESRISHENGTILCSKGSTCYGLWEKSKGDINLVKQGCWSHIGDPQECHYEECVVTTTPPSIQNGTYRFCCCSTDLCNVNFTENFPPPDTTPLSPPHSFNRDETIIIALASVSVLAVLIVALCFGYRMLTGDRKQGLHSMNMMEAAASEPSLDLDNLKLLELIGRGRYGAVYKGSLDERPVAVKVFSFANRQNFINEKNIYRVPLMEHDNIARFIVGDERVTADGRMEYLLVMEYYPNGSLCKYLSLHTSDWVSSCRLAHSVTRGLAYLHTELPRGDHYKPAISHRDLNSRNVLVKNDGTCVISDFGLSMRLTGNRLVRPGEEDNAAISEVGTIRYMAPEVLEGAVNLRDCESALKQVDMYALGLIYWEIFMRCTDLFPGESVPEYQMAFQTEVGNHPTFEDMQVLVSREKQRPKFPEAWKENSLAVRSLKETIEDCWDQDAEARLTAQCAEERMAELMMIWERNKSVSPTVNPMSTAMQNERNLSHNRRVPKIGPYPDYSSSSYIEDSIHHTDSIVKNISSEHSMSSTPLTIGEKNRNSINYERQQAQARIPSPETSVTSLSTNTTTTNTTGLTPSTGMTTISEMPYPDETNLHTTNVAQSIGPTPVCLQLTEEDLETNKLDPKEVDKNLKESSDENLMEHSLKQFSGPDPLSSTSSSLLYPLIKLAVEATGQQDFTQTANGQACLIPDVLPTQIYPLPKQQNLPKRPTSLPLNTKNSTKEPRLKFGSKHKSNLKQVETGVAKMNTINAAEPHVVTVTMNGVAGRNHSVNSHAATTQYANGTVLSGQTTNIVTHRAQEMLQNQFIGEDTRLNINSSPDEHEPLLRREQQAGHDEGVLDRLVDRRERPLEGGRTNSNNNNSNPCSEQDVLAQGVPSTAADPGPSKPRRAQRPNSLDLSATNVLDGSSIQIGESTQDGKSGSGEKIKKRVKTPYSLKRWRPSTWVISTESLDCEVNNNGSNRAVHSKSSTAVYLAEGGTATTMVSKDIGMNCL
Experimental: as §1

[7] = biological target: T7, TGFBR2 (Homo sapiens, UniProt P37173)
T7 construct: endogenous in cells; host or cells: K562
Experimental: as §1

[8] = biological target: T8, LYN (Homo sapiens, UniProt P07948)
T8 construct: endogenous in cells; host or cells: K562
Experimental: as §1

[9] = biological target: T9, JAK1 (Homo sapiens, UniProt P23458)
T9 construct: endogenous in cells; host or cells: K562
Experimental: as §1

[10] = biological target: T10, MAPK7 (Homo sapiens, UniProt Q13164);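 as to 0.001 uM KAM: median log10 fold change of treatment over DMSO control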;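 as to 0.01 uM KAM: median log10 fold change of treatment over DMSO control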;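 as to 0.1 uM KAM: median log10 fold change of treatment over DMSO control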;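 as to 1 uM KAM: median log10 fold change of treatment over DMSO control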;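 as to 10 uM KAM: median log10 fold change of treatment over DMSO control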
T10 construct: endogenous in cells; host or cells: K562
Experimental: as §1

[11] = read-out: RB50 (the source's name)
[12] = KAM 0.001-10 uM, read-out: RB50 (the source's name)

T8 sequence (P07948 whole entry): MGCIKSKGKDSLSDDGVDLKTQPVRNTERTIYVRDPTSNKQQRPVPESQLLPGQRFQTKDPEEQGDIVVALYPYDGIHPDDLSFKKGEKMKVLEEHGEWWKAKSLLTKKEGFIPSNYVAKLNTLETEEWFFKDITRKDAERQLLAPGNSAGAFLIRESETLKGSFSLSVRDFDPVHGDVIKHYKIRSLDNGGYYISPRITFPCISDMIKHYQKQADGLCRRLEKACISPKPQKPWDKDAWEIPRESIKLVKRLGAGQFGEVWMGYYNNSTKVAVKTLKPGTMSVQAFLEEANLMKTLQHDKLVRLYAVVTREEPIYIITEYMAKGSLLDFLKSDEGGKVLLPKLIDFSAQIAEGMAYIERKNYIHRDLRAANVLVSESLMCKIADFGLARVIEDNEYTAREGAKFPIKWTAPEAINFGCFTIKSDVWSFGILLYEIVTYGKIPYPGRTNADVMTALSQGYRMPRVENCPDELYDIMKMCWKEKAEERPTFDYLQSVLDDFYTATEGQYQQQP
T2 sequence (Q9NYL2 whole entry): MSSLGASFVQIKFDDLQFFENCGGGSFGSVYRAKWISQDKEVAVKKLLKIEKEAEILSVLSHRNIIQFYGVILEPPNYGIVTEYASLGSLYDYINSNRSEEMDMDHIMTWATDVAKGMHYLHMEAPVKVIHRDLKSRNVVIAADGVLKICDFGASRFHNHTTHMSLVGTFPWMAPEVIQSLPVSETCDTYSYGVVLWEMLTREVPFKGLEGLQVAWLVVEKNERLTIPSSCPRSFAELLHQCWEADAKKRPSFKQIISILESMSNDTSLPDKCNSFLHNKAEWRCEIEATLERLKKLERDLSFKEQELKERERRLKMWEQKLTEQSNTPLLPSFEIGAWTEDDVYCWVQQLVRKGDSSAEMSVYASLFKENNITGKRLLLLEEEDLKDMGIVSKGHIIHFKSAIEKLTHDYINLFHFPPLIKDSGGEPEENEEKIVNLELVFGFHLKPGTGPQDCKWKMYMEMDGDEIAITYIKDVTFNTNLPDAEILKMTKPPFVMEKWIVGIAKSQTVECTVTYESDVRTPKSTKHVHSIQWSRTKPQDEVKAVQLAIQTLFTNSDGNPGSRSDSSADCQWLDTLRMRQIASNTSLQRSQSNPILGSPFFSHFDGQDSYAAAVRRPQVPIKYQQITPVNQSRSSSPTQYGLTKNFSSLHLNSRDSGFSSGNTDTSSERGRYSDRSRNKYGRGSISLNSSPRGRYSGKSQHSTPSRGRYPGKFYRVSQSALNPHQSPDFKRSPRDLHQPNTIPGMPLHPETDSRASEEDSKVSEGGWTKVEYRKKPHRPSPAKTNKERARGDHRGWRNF
T10 sequence (Q13164 whole entry): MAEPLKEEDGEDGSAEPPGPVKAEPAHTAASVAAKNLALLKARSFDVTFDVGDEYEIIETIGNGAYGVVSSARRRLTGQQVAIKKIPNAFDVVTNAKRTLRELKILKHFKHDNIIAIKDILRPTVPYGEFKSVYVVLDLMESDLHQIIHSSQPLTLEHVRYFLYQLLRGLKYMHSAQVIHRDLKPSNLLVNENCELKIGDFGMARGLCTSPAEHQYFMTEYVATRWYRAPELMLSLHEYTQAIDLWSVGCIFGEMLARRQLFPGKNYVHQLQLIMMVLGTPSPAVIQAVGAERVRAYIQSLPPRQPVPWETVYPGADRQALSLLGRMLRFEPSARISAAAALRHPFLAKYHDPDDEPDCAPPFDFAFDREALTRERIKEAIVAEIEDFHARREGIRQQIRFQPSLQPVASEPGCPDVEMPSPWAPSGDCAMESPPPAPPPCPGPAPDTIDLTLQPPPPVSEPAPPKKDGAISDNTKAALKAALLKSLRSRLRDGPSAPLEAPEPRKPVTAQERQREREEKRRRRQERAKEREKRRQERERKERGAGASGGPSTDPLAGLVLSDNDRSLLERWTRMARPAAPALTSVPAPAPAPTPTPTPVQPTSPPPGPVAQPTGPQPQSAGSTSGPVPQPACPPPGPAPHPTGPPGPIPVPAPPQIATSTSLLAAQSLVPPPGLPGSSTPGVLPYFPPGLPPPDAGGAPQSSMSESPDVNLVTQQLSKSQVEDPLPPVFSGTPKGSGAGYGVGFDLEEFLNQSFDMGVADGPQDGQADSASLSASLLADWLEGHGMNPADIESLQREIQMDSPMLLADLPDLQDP
T7 sequence (P37173 23-567): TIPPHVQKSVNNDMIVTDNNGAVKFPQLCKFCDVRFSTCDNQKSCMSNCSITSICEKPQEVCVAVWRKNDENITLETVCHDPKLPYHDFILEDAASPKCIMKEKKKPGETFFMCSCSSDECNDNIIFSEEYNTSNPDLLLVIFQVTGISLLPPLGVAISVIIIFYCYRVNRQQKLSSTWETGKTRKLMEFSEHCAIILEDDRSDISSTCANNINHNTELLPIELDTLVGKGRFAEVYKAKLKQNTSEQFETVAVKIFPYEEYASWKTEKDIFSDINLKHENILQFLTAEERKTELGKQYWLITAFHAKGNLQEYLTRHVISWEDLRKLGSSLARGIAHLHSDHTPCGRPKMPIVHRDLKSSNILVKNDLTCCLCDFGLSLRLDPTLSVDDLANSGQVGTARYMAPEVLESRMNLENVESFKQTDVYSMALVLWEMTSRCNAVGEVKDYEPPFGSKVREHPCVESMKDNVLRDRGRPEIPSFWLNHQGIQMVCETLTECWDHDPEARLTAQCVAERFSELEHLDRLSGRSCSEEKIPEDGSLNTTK
T4 sequence (P05771 whole entry): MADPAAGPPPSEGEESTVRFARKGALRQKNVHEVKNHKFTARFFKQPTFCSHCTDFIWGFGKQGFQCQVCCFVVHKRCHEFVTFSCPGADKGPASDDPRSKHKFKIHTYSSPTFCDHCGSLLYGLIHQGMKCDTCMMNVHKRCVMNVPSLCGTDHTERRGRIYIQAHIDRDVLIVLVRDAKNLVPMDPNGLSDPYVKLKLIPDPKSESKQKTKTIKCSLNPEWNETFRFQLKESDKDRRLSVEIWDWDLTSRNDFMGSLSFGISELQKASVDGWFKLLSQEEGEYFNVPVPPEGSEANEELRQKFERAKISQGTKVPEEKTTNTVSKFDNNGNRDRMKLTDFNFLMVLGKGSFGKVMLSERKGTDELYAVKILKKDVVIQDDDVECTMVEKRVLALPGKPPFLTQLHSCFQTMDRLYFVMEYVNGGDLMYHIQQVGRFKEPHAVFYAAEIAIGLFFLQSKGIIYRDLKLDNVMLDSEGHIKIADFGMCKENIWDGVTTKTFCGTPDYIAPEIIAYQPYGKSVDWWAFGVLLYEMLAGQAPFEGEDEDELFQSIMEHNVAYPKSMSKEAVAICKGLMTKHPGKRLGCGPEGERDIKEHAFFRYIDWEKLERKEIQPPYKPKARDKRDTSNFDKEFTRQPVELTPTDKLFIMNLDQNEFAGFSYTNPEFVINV
T5 sequence (Q9NSY1 whole entry): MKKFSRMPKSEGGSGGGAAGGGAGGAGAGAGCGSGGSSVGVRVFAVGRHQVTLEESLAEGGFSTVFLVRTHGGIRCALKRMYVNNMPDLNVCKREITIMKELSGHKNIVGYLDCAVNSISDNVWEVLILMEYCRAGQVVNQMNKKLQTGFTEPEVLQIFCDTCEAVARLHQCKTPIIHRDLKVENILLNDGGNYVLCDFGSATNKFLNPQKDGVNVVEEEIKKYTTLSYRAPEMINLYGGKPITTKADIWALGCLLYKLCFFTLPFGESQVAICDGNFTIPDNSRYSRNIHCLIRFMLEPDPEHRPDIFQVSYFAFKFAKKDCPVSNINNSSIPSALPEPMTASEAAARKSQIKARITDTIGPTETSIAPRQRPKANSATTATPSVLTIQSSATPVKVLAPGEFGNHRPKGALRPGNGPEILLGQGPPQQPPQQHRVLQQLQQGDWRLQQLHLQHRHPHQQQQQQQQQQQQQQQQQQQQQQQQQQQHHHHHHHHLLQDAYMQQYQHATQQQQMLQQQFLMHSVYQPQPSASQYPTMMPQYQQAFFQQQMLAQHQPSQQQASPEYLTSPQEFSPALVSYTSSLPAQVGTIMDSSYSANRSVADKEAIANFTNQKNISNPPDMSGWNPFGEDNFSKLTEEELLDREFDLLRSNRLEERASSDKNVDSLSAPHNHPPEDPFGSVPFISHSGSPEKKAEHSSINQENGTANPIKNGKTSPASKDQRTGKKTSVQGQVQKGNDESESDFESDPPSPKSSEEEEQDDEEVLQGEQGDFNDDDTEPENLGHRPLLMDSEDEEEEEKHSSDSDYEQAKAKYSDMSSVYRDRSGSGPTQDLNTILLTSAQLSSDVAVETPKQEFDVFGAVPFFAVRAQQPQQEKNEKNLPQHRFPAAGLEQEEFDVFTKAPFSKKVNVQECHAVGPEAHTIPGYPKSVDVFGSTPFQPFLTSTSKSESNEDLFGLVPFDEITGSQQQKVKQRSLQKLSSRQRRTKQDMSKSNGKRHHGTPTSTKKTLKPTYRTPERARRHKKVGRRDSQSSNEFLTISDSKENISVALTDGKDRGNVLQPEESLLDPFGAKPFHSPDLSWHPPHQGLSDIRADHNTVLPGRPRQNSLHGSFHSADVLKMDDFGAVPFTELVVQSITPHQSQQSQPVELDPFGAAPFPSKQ
T1 sequence (Q00535 whole entry): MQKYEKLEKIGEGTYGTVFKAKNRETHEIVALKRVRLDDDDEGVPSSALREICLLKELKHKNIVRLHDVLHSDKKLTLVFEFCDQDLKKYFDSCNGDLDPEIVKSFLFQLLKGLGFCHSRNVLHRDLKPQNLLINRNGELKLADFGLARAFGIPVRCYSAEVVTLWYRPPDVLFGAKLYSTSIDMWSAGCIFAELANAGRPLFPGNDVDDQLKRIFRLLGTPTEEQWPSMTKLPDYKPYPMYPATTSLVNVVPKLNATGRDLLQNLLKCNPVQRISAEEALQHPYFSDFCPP

## N#CCc1ccc(Nc2nc(NCCCN)cc(Nc3cc(C4CC4)[nH]n3)n2)cc1 [KAM]
[1]; 0.001 uM KAM
  median Log10 fold change: 0.003574
[1]; 0.01 uM KAM
  median Log10 fold change: 0.001841
[1]; 0.1 uM KAM
  median Log10 fold change: -0.2018
[1]; 1 uM KAM
  median Log10 fold change: -0.5013
[1]; 10 uM KAM
  median Log10 fold change: -0.5902
[1]; [11]
  IC50: 298 nM
[2]; 0.001 uM KAM
  median Log10 fold change: -0.0362
[2]; 0.01 uM KAM
  median Log10 fold change: -0.03172
[2]; 0.1 uM KAM
  median Log10 fold change: -0.2036
[2]; 1 uM KAM
  median Log10 fold change: -0.2767
[2]; 10 uM KAM
  median Log10 fold change: -0.5362
[2]; [11]
  IC50: 990 nM
[3]; [12]
  IC50: > 10000 nM
[3]; relative to 0 uM KAM = 0
  0.001 uM KAM: -0.0432
  0.01 uM KAM: 0.002565
  0.1 uM KAM: 0.008768
  1 uM KAM: 0.00582
  10 uM KAM: -0.03437
[4]; 0.001 uM KAM
  median Log10 fold change: -0.003193
[4]; 0.01 uM KAM
  median Log10 fold change: -0.01706
[4]; 0.1 uM KAM
  median Log10 fold change: -0.1711
[4]; 1 uM KAM
  median Log10 fold change: -0.4944
[4]; 10 uM KAM
  median Log10 fold change: -0.6051
[4]; [11]
  IC50: 354 nM
[5]; 0.001 uM KAM
  median Log10 fold change: -0.005905
[5]; 0.01 uM KAM
  median Log10 fold change: -0.3094
[5]; 0.1 uM KAM
  median Log10 fold change: -0.4691
[5]; 1 uM KAM
  median Log10 fold change: -0.5686
[5]; 10 uM KAM
  median Log10 fold change: -0.6945
[5]; [11]
  IC50: 16 nM
[6]; [12]
  IC50: 6670 nM
[6]; relative to 0 uM KAM = 0
  0.001 uM KAM: 0.0006826
  0.01 uM KAM: -0.02948
  0.1 uM KAM: -0.09644
  1 uM KAM: -0.1591
  10 uM KAM: -0.3053
[7]; 0.001 uM KAM
  median Log10 fold change: 0.03003
[7]; 0.01 uM KAM
  median Log10 fold change: -0.09645
[7]; 0.1 uM KAM
  median Log10 fold change: -0.3569
[7]; 1 uM KAM
  median Log10 fold change: -0.3895
[7]; 10 uM KAM
  median Log10 fold change: -0.4032
[7]; [11]
  IC50: 117 nM
[8]; 0.001 uM KAM
  median Log10 fold change: -0.01474
[8]; 0.01 uM KAM
  median Log10 fold change: -0.009336
[8]; 0.1 uM KAM
  median Log10 fold change: -0.1214
[8]; 1 uM KAM
  median Log10 fold change: -0.4299
[8]; 10 uM KAM
  median Log10 fold change: -0.513
[8]; [11]
  IC50: 601 nM
[9]; 0.001 uM KAM
  median Log10 fold change: -0.0004094
[9]; 0.01 uM KAM
  median Log10 fold change: 0.001552
[9]; 0.1 uM KAM
  median Log10 fold change: -0.1118
[9]; 1 uM KAM
  median Log10 fold change: -0.4812
[9]; 10 uM KAM
  median Log10 fold change: -0.5497
[9]; [11]
  IC50: 518 nM
[10]; [12]
  IC50: > 10000 nM
[10]; relative to 0 uM KAM = 0
  0.001 uM KAM: -0.02869
  0.01 uM KAM: 0.01229
  0.1 uM KAM: -0.142
  1 uM KAM: -0.1326
  10 uM KAM: -0.1898
